Reference: PubChem BioAssay AID1996
Values after ≈ are worked out from the molar mass of the structure shown.

conditions: buffer; pH 7.4; 200.0 µM

Row | Structure (SMILES) | solubility kinetic
1 | COc1ccc(Cl)cc1C(=O)OCC(=O)Nc1sccc1C(N)=O | 6.6 µg/mL (≈ 17.9 µM)
2 | CC(Cc1ccccc1)N1Cc2ccccc2C1 (stereo unspecified) | 35.3 µg/mL (≈ 149 µM)
3 | CC(CN1CCCC1)OC(=O)c1cccc(F)c1.Cl (stereo unspecified) | 39.6 µg/mL
4 | COC(=O)C(CC(=O)O)NCc1ccco1 (stereo unspecified) | > 34.1 µg/mL
5 | Cc1ccc(S(=O)(=O)N2CCC3(CC2)OCCO3)cc1 | > 44.6 µg/mL
6 | Cc1nnc(SCC(=O)Nc2cccc(N)c2)n1-c1ccccc1 | > 50.9 µg/mL
7 | CCOC(=O)c1nc(Nc2ccccc2CC)c2ccccc2n1 | > 48.2 µg/mL
8 | Cc1cccc(OCC(=O)Nc2ccc3c(c2)C(=O)NC3=O)c1 | 1.3 µg/mL (≈ 4.19 µM)
9 | O=c1c2ccccc2nc(/C=C/c2cccnc2)n1CCc1ccccc1 | 22.1 µg/mL (≈ 62.5 µM)
10 | COc1cccc(CNc2ccc([N+](=O)[O-])cc2C)c1 | 1.3 µg/mL (≈ 4.77 µM)
11 | O=C(CCc1ccccc1)Nc1cccc(S(=O)(=O)N2CCOCC2)c1 | 50.6 µg/mL (≈ 135 µM)
12 | O=C(Nc1ccc(OCC(F)(F)C(F)F)cc1)c1ccncc1 | > 49.2 µg/mL
13 | CCOC(=O)C1CCCN(/C=C2\SC(=S)N(CC)C2=O)C1 (stereo unspecified) | 39.4 µg/mL (≈ 120 µM)
14 | O=C(Nc1ccc2ncccc2c1)c1cccc(Br)c1 | 2.5 µg/mL (≈ 7.64 µM)
15 | Cl.Fc1ccc(-c2csc(Nc3ccccn3)n2)c(F)c1 | < 0.2 µg/mL
16 | Cl.NCCc1cnc[nH]1 | > 27.6 µg/mL
17 | O=C1CSC(c2ccccc2)N1c1ccccc1F (stereo unspecified) | 40.3 µg/mL (≈ 147 µM)
18 | Cc1cc(NC(=O)C(C)SCC(=O)O)no1 (stereo unspecified) | > 36.6 µg/mL
19 | Cc1ccc(C)n1-c1ccc(C(=O)NCc2ccncc2)cc1 | 38.3 µg/mL (≈ 125 µM)
20 | Cc1ccc(N2C(=O)CC(Nc3cccc4ccccc34)C2=O)cc1 (stereo unspecified) | 3.8 µg/mL (≈ 11.5 µM)
21 | Cc1ccc(-c2cc(NC(=O)c3ccccc3)on2)cc1 | < 0.3 µg/mL
22 | O=C(NCc1cccnc1)Nc1ccc([N+](=O)[O-])cc1 | > 40.8 µg/mL
23 | CCN(C(=O)COC(=O)c1cnccn1)c1cccc2ccccc12 | > 50.3 µg/mL
24 | O=C(CCc1ccccc1)N1CCCC1 | 29.9 µg/mL (≈ 147 µM)
25 | CCOc1nc(CC(C)C)c2c(c1C#N)CC(C)(C)OC2 | 2.4 µg/mL (≈ 8.32 µM)

Row | Structure (SMILES) | solubility kinetic
26 | CN(Cc1ccccc1)C(=O)CN(C)S(=O)(=O)c1ccc(F)cc1 | > 52.6 µg/mL
27 | O=C(CCNC(=O)c1ccccc1)NNC(=O)c1ccccc1Br | > 58.5 µg/mL
28 | Cc1ccc(/C(=C\CN2CCCC2)c2ccccn2)cc1.Cl | > 47.2 µg/mL
29 | O=C(O)C(=O)O.O=C(c1ccco1)N1CCN(Cc2ccccc2F)CC1 | 33.9 µg/mL
30 | CC1CCN(CC(=O)Nc2ccc3c(c2)OCO3)CC1 | > 41.5 µg/mL
31 | COc1ccc(CC(=O)NC(C)c2ccc3ccccc3c2)cc1 (stereo unspecified) | 0.7 µg/mL (≈ 2.19 µM)
32 | O=C1CCC(=O)N1CCSC(=S)N1CCSCC1 | > 45.7 µg/mL
33 | Cc1ccc(C(=O)N2CCN(C(=O)c3ccc(C)cc3)C2)cc1 | > 46.3 µg/mL
34 | O=C1c2ccccc2-c2cccc(C(=O)N3CCCCC3)c21 | 36.7 µg/mL (≈ 126 µM)
35 | Cc1cnc(NC(=O)Cc2ccc(S(=O)(=O)N3CCOCC3)s2)s1 | 19.7 µg/mL (≈ 50.8 µM)
36 | CN(C)C(=O)CSc1ccc(S(=O)(=O)N2CCCC2)cn1 | > 49.4 µg/mL
37 | CC(CC(=O)O)CC(=O)Nc1cc(C(F)(F)F)cc(C(F)(F)F)c1 (stereo unspecified) | > 53.6 µg/mL
38 | COc1cc2c(cc1OC)C(c1ccc(Cl)cc1)=NCC2 | 41.5 µg/mL (≈ 138 µM)
39 | CCOC(=O)c1ccc(NC(=O)c2ccc[n+]([O-])c2)cc1 | > 42.9 µg/mL
40 | Cc1ccccc1C(=O)N1CCC(C(=O)N2CCN(Cc3ccc4c(c3)OCO4)CC2)CC1 | 59.1 µg/mL (≈ 131 µM)
41 | CCc1ccc(OCC(O)CN2CCCC2)cc1.Cl (stereo unspecified) | 39.8 µg/mL
42 | O=C(O)c1ccc(S(=O)(=O)NC2CC2)cc1 | > 36.2 µg/mL
43 | Cc1nc2cc(NC(=O)c3ccc(Cl)cc3)ccc2n1C | 1 µg/mL (≈ 3.34 µM)
44 | N#Cc1cn(-c2cccc(C(F)(F)F)c2)c(=O)[nH]c1=O | > 42.2 µg/mL
45 | COCCCNc1nc(N)c([N+](=O)[O-])c(Nc2ccccc2OC)n1 | 1 µg/mL (≈ 2.87 µM)
46 | NC(=O)C1CCN(C(=O)c2cc(-c3ccccc3Cl)nc3ccccc23)CC1 | > 59.1 µg/mL
47 | Br.c1ccc(NC2=NCCCS2)cc1 | > 41 µg/mL
48 | Cc1cccc(C(=O)NCC(=O)N2CCC2)c1 | > 34.8 µg/mL
49 | Cc1c(C)c(C)c(CN2CCCC2)c(C)c1C | 29.4 µg/mL (≈ 127 µM)
50 | CC(=O)c1ccc(NC(=S)Nc2cccc3ccccc23)cc1 | 10.6 µg/mL (≈ 33.1 µM)

Row | Structure (SMILES) | solubility kinetic
51 | Cc1ccc(C(=O)Nc2ccc(NC(=O)c3ccc(C)o3)cc2)o1 | 1.7 µg/mL (≈ 5.24 µM)
52 | CC(NCc1cccc(S(=O)(=O)N(C)C)c1)c1ccc(F)cc1 (stereo unspecified) | 37.1 µg/mL (≈ 110 µM)
53 | NC(=O)c1cc(-c2csc(NCCc3ccccc3)n2)ccc1O | 8 µg/mL (≈ 23.6 µM)
54 | CNS(=O)(=O)c1ccc(NC(=O)c2csc(C)c2)cc1 | 6.9 µg/mL (≈ 22.2 µM)
55 | COc1ccc(-c2cc(C(=O)N3CCCC3)c3ccccc3n2)cc1OC | 53.9 µg/mL (≈ 149 µM)
56 | Cc1ccc2nc(SCC3CCCCO3)[nH]c2c1 (stereo unspecified) | 37.4 µg/mL (≈ 143 µM)
57 | O=C(Nc1cccc(O)c1)c1cccc(NC(=O)c2cccs2)c1 | > 50.8 µg/mL
58 | Cc1ccc(N2C(=O)c3ccccc3C2=O)cc1 | 2.7 µg/mL (≈ 11.4 µM)
59 | O=C(COC(=O)c1ccc([N+](=O)[O-])o1)Nc1ccc(Br)cc1F | 21 µg/mL (≈ 54.2 µM)
60 | CC(C(=O)Nc1ccc(F)c(F)c1F)N(C)Cc1cccs1 (stereo unspecified) | 13.6 µg/mL (≈ 41.4 µM)
61 | COC(=O)C1(C(=O)O)Cc2cc([N+](=O)[O-])ccc2N2CCCC21 (stereo unspecified) | 47.9 µg/mL (≈ 150 µM)
62 | Cc1ccc(OCC(=O)N2CCN(S(C)(=O)=O)CC2)cc1 | > 46.9 µg/mL
63 | Cc1[nH]c2ccccc2c1SCC(=O)Nc1nccs1 | 4.8 µg/mL (≈ 15.8 µM)
64 | CCOc1ccc(NC(=O)NC2CCCCCCC2)cc1 | 0.9 µg/mL (≈ 3.1 µM)
65 | CC(=O)Nc1ccccc1C(=O)OCC(=O)Nc1ncccn1 | > 47.1 µg/mL
66 | COc1ccc(-c2nonc2NC(=O)c2ccco2)cc1OC | > 47.3 µg/mL
67 | Cc1ccccc1CN1CCN(CC(=O)NC(C)c2ccccc2)CC1 (stereo unspecified) | 47.8 µg/mL (≈ 136 µM)
68 | Cc1ccccc1OCCCCn1c(CO)nc2ccccc21 | 29.2 µg/mL (≈ 94.1 µM)
69 | COc1cc(/C=C/C(=O)Nc2ccc(OC)c(S(=O)(=O)N3CCOCC3)c2)ccc1OCC#N | 7.1 µg/mL (≈ 14.6 µM)
70 | Cl.O=S(=O)(NCCN1CCOCC1)c1cccs1 | > 46.9 µg/mL
71 | O=C(CC12CC3CC(CC(C3)C1)C2)Nc1ccc(C(=O)O)cc1 | > 47 µg/mL
72 | CCN(c1ccccc1)S(=O)(=O)c1cc(NC(=O)C2CC2)ccc1Cl | 26.2 µg/mL (≈ 69.2 µM)
73 | Cc1ccccc1CC(=O)NC1CCCCCC1 | 11.1 µg/mL (≈ 45.2 µM)
74 | COC(=O)c1ccc(SCc2ccccc2)nc1 | 3.1 µg/mL (≈ 12 µM)
75 | O=C(COC(=O)C1C2CC3OC(=O)C1C3C2)Nc1ccccc1 (stereo unspecified) | > 47.3 µg/mL

Row | Structure (SMILES) | solubility kinetic
76 | O=c1[nH]c(O)c(C=NCCc2ccccc2)c(=O)[nH]1 | 3.6 µg/mL (≈ 13.9 µM)
77 | Cn1nc(C(=O)NC2CCC(O)CC2)c2ccccc2c1=O (stereo unspecified) | > 45.2 µg/mL
78 | O=C(Nc1nccs1)C1CC(=O)N(c2ccccc2)C1 (stereo unspecified) | > 43.1 µg/mL
79 | COc1cccc2c(=O)n(CC(=O)NCCc3ccccc3)ccc12 | 1.6 µg/mL (≈ 4.76 µM)
80 | O=C(OCC(=O)c1ccc[nH]1)c1ccc([N+](=O)[O-])cc1 | 13.3 µg/mL (≈ 48.5 µM)
81 | O=C(NN1CCOCC1)c1ccc(Cl)cc1Cl | > 41.3 µg/mL
82 | CN(C)Cc1c(O)ccc2ccccc12 | 29.8 µg/mL (≈ 148 µM)
83 | O=C(Nc1cc(Cl)ccc1N1CCOCC1)c1cccnc1Cl | 49.7 µg/mL (≈ 141 µM)
84 | COC(=O)[C@H](C)NC(=O)N1CCC(Cc2ccccc2)CC1 | > 45.7 µg/mL
85 | COc1cccc(C(=O)Nc2cccc3ccccc23)c1OC | 14.5 µg/mL (≈ 47.2 µM)
86 | O=C(Nc1nccs1)C(c1ccccc1)N1CCCC1 (stereo unspecified) | > 43.1 µg/mL
87 | Cc1cccc(C)c1N=C1C(=O)Nc2ccccc21 | 31.2 µg/mL (≈ 125 µM)
88 | O=C(/N=C1\NC(=O)C(F)(C(F)(F)F)S1)NC1CCCCC1 (stereo unspecified) | > 49.1 µg/mL
89 | Cc1nn(C)c(Cl)c1CN1CCN(C2CCCC2)C(CCO)C1 (stereo unspecified) | > 51.1 µg/mL
90 | COc1ccc(-c2nc(N)ncc2-c2ccccc2)c(O)c1 | 0.9 µg/mL (≈ 3.07 µM)
91 | Cc1cc(C)c(C#N)c(OCc2ccc(Cl)nc2)n1 | 8.5 µg/mL (≈ 31.1 µM)
92 | O=C(NCc1ccccc1)c1cc[n+]([O-])cc1 | > 34.2 µg/mL
93 | COC(=O)c1ccccc1NC(=O)NC1CCCCC1 | 2.6 µg/mL (≈ 9.41 µM)
94 | CCOC(=O)Cc1cc(C)[nH]c1C(=O)OCC | 34.7 µg/mL (≈ 145 µM)
95 | Cc1ccc(S(=O)(=O)NC(CC(=O)O)c2ccc(F)cc2)cc1 (stereo unspecified) | 34.8 µg/mL (≈ 103 µM)
96 | Cc1sc2ncnc(N)c2c1C | > 26.9 µg/mL
97 | Cn1c(-c2ccccc2)cc2ccccc21 | 0.6 µg/mL (≈ 2.89 µM)
98 | O=C(COc1ccccc1Cl)N1CCc2ccccc21 | 1.1 µg/mL (≈ 3.82 µM)
99 | COc1ccc2cc(C(=O)NCC3CCCO3)[nH]c2c1 (stereo unspecified) | > 41.1 µg/mL
100 | O=C(CSc1cc(Cl)ccc1Cl)NC1CCCC1 | 3.6 µg/mL (≈ 11.8 µM)

Row | Structure (SMILES) | solubility kinetic
101 | Cc1cc(C)n2nc(SCc3ccccc3C(=O)O)nc2n1 | > 47.2 µg/mL
102 | NC1=NC(=O)/C(=C/c2ccsc2)S1 | 19.5 µg/mL (≈ 92.7 µM)
103 | O=C(O)c1ccccc1-c1ccccc1C(=O)NCCc1ccccc1 | 50.4 µg/mL (≈ 146 µM)
104 | O=C(NNC(=O)c1ccc([N+](=O)[O-])cc1)c1ccc(NS(=O)(=O)c2cccs2)cc1 | > 67 µg/mL
105 | CCOC(CNc1ncnc2sc(-c3ccccc3)cc12)OCC | 18.6 µg/mL (≈ 54.2 µM)
106 | CN1CCN(c2ccc([N+](=O)[O-])cc2NC(=O)c2ccco2)CC1 | 20.8 µg/mL (≈ 63 µM)
107 | Cn1c(/C=C/c2ccccc2[N+](=O)[O-])nc2ccccc2c1=O | 0.6 µg/mL (≈ 1.95 µM)
108 | CCOC(=O)c1c(C)[nH]c(C)c1C(=O)COC(=O)c1cccnc1OCC | > 56.2 µg/mL
109 | CC(=O)N/C(=N\c1nc(C)cc(C)n1)Nc1ccc2ccccc2c1 | 0.5 µg/mL (≈ 1.5 µM)
110 | COc1cc(OC)c(C(=O)NCc2ccco2)cc1OC | > 43.7 µg/mL
111 | CC(=O)N(c1ccc(Cl)cc1)c1nc(C)cc(C)c1C#N | > 45 µg/mL
112 | O=C1CC(=O)N(c2ccccc2)C(=O)N1c1ccccc1 | > 42 µg/mL
113 | Cc1cnc(C(=O)OCC(=O)c2ccc[nH]2)cn1 | > 36.8 µg/mL
114 | COC(=O)c1ccccc1NC(=O)c1ccc(F)cc1 | < 0.6 µg/mL
115 | COc1ccc(C)cc1NC(=S)Nc1ccccc1SC | 10.5 µg/mL (≈ 33 µM)
116 | CCc1cccc(C)c1NC(=S)N1CCCCC1c1cccnc1 (stereo unspecified) | 46.3 µg/mL (≈ 136 µM)
117 | COc1ccc(NC(=O)/C=C/C(=O)O)c(OC)c1 | 37 µg/mL (≈ 147 µM)
118 | c1csc(-c2nc(CN3CCSCC3)cs2)c1 | 32.8 µg/mL (≈ 116 µM)
119 | Cc1ccc(NC(=O)CN(C)C(=O)COC(=O)[C@@H](NC(=O)c2ccccc2F)C(C)C)cc1 | > 68.6 µg/mL
120 | O=c1c2ccccc2nc(/C=C/c2c[nH]c3ccccc23)n1CCO | 8.6 µg/mL (≈ 26 µM)
121 | Cc1ccccc1C(=O)NC(=S)N(CCO)Cc1ccccc1 | > 49.3 µg/mL
